Results as given in patent US20140357512A1, “HISTONE DEACETYLASE (HDAC) BIOMARKERS IN MULTIPLE MYELOMA” (priority 2013, published 2014).

Tested on: human myeloma cell line MM.1S
Experiment: CNP analysis: acetylated peptides in cytoplasm (C), soluble nuclear extract (N), insoluble nuclear pellet (P) of Compound B treated cells
Type: cell-based
Conditions: for change in quantity of acetylated peptide, C / fold change in quantity of acetylated peptide, C: cytoplasm (C), normalized to total (C+N+P); for C: change in quantity of acetylated peptide normalized to total (C+N+P) / C: fold change in quantity of acetylated peptide normalized to total (C+N+P): cytoplasm fraction; for P: change in quantity of acetylated peptide normalized to total (C+N+P) / P: fold change in quantity of acetylated peptide normalized to total (C+N+P): insoluble nuclear pellet; for N: change in quantity of acetylated peptide normalized to total (C+N+P) / N: fold change in quantity of acetylated peptide normalized to total (C+N+P): soluble nuclear extract
Protocol: This example describes the CNP analysis that was performed on Compound B treated cells from Example 1.
The SILAC method was performed as described in Example 1.
The harvested “heavy” and “light” labeled cells were initially lysed with 2×NETN buffer (200 mM NaCl, 100 mM Tris-Cl, 2 mM EDTA, 1.0% NP-40, pH 7.2) on ice for 15 min, respectively. The supernatants were saved after 20,000×g centrifugation for 10 minutes at 4° C. After measurement of the protein concentration in “heavy” or “light” labeled supernatants, equal amounts of crude proteins in supernatant were mixed, and the crude proteins were precipitated by adding trifluoroacetic acid (TFA) with 15% final concentration (v/v) (this was called the cytosolic fraction). After washing twice with −20° C. acetone, the proteins pellets were dissolved in 100 mM NH4HCO3 (pH 8.0) for trypsin digestion.
The remaining cell pellets were further lysed with 1×ETN buffer (100 mM NaCl, 50 mM Tris-Cl, 1 mM EDTA, pH 7.2) supplemented with 0.5% Triton X-100 on ice for 15 min, respectively. The resulting lysates were clarified by 20,000×g centrifugation for 10 minutes, and the supernatant was saved as nuclear extracts fractions. After measurement of the protein concentration in “heavy” or “light” labeled supernatant, equal amount of crude proteins in supernatant were mixed, and the crude proteins were precipitated by adding trifluoroacetic acid (TFA) with 15% final concentration (v/v) (this was called the nuclear extracts fraction). After washing twice with −20° C. acetone, the proteins pellets were dissolved in 100 mM NH4HCO3 (pH 8.0) for trypsin digestion.
The final remaining cell pellets were dissolved in 8 M urea to extract the chromatin-binding proteins. After measurement of protein concentration, equal amount of chromatin-binding proteins in urea solution were mixed, and the proteins were precipitated by adding trifluoroacetic acid (TFA) with 15% final concentration (v/v) (this was called the nuclear pellet fraction). After washing twice with −20° C. acetone, the proteins pellets were dissolved in 100 mM NH4HCO3 for trypsin digestion.
After trypsin digestion for the above three fractions, the Kac affinity enrichment followed by MS analysis and data inquiry were separately performed. The combined Kac data formed the total Kac profiling data in the pair of Compound B vs DMSO.
Compound B treated cell lysate was fractionated into three subcellular fractions—cytoplasm (C), soluble nuclear extract (N), and insoluble nuclear pellet (P), as described above. Any peptides identified as HDAC6 specific in Example 1 with this subcellular localization information was extremely helpful for understanding their functions inside cells.
The third, fourth, and fifth columns of Table 2 show data for Compound B. A “+” indicates a 1.3 fold change or greater in the quantity of peptide when normalized to the total (C+N+P=total) for each peptide for each drug treated group of cells. A “−” indicates a 1.29 fold change or less in the quantity of peptide when normalized to the total (C+N+P=total) for each peptide for each drug treated group of cells. “None” indicates unknown.
The sixth, seventh, and eighth columns of Table 2 show data for Compound B. The numbers in these columns represent the fold change in the quantity of peptide when normalized to the total (C+N+P=total) for each peptide for each drug treated group of cells. The numbers are in a log 2 scale so 1 represents a 2× change, 0 represents no change, and None represents unknown.

[1] = peptide AVLIDK(ac)DQSPK (SEQ ID NO: 577), gene HIBCH
[2] = peptide CSK(ac)LPSSTK(ac)SGWPR (SEQ ID NO: 711), gene PHF15
[3] = peptide DFGSFDK(ac)FK (SEQ ID NO: 709), gene SOD2
[4] = peptide INKALDK(ac)TK (SEQ ID NO: 802), gene MYH9
[5] = peptide K(ac)AINK(ac)AQK (SEQ ID NO: 793), gene HIST1H2BM
[6] = peptide KGEDFVK(ac)TLK (SEQ ID NO: 750), gene MDH2
[7] = peptide LENDK(ac)SFR (SEQ ID NO: 678), gene ECI1
[8] = peptide SELTGK(ac)FEK (SEQ ID NO: 778), gene ANXA5

For `O=C(NO)c1cnc(NC2(c3cccc(F)c3)CCCCC2)nc1` [Compound B, 2-((1-(3-fluorophenyl)cyclohexyl)amino)-N-hydroxypyrimidine-5-carboxamide], the “change in quantity of acetylated peptide, C” value [1] was “− (A “−” indicates a 1.29 fold change or less in the quantity of peptide when normalized to the total (C+N+P=total))”, the “fold change in quantity of acetylated peptide, C” value [1] was 0.00 log 2 and the “change in quantity of acetylated peptide, C” value (peptide FYK(ac)DVLEVGELAK (SEQ ID NO: 596), gene NAA50) was “− (A “−” indicates a 1.29 fold change or less in the quantity of peptide when normalized to the total (C+N+P=total))”. The “fold change in quantity of acetylated peptide, C” value (peptide FYK(ac)[…] (SEQ ID NO: 596), gene NAA50) was 0.12 log 2, the “fold change in quantity of acetylated peptide, C” value (peptide NCSSFLIK(ac)R (SEQ ID NO: 558), gene RPL28) was 0.05 log 2 and the “change in quantity of acetylated peptide, C” value (peptide VTCIDPNPNFEK(ac)FLIK (SEQ ID NO: 671), gene METTL7A) was “+ (A “+” indicates a 1.3 fold change or greater in the quantity of peptide when normalized to the total (C+N+P=total))”. For the same molecule, the “fold change in quantity of acetylated peptide, C” value (peptide […](ac)FLIK (SEQ ID NO: 671), gene METTL7A) was 0.44 log 2, the “fold change in quantity of acetylated peptide, C” value (peptide […](ac)QNK (SEQ ID NO: 650), gene DLD) was 0.18 log 2 and the “C: change in quantity of acetylated peptide normalized to total (C+N+P)” value [2] was “− (A “−” indicates a 1.29 fold change or less in the quantity of peptide when normalized to the total (C+N+P=total))”. For the same molecule, the “C: fold change in quantity of acetylated peptide normalized to total (C+N+P)” value [2] was 0.11 log 2 scale, the “P: change in quantity of acetylated peptide normalized to total (C+N+P)” value [2] was “+ (A “+” indicates a 1.3 fold change or greater in the quantity of peptide when normalized to the total (C+N+P=total))” and the “P: fold change in quantity of acetylated peptide normalized to total (C+N+P)” value [2] was 0.43 log 2 scale. For the same molecule, the “N: change in quantity of acetylated peptide normalized to total (C+N+P)” value [2] was “− (A “−” indicates a 1.29 fold change or less in the quantity of peptide when normalized to the total (C+N+P=total))”, the “N: fold change in quantity of acetylated peptide normalized to total (C+N+P)” value [2] was 0.04 log 2 scale and the “C: change in quantity of acetylated peptide normalized to total (C+N+P)” value [3] was “− (A “−” indicates a 1.29 fold change or less in the quantity of peptide when normalized to the total (C+N+P=total))”. For the same molecule, the “C: fold change in quantity of acetylated peptide normalized to total (C+N+P)” value [3] was −0.28 log 2 scale, the “P: change in quantity of acetylated peptide normalized to total (C+N+P)” value [3] was “− (A “−” indicates a 1.29 fold change or less in the quantity of peptide when normalized to the total (C+N+P=total))” and the “N: change in quantity of acetylated peptide normalized to total (C+N+P)” value [3] was “+ (A “+” indicates a 1.3 fold change or greater in the quantity of peptide when normalized to the total (C+N+P=total))”. The “N: fold change in quantity of acetylated peptide normalized to total (C+N+P)” value [3] was −0.48 log 2 scale, the “C: change in quantity of acetylated peptide normalized to total (C+N+P)” value [4] was “− (A “−” indicates a 1.29 fold change or less in the quantity of peptide when normalized to the total (C+N+P=total))” and the “P: change in quantity of acetylated peptide normalized to total (C+N+P)” value [4] was “− (A “−” indicates a 1.29 fold change or less in the quantity of peptide when normalized to the total (C+N+P=total))”. For the same molecule, the “N: change in quantity of acetylated peptide normalized to total (C+N+P)” value [4] was “+ (A “+” indicates a 1.3 fold change or greater in the quantity of peptide when normalized to the total (C+N+P=total))”, the “N: fold change in quantity of acetylated peptide normalized to total (C+N+P)” value [4] was 4.75 log 2 scale and the “C: change in quantity of acetylated peptide normalized to total (C+N+P)” value [5] was “− (A “−” indicates a 1.29 fold change or less in the quantity of peptide when normalized to the total (C+N+P=total))”. The “P: change in quantity of acetylated peptide normalized to total (C+N+P)” value [5] was “− (A “−” indicates a 1.29 fold change or less in the quantity of peptide when normalized to the total (C+N+P=total))”, the “P: fold change in quantity of acetylated peptide normalized to total (C+N+P)” value [5] was 0.27 log 2 scale and the “N: change in quantity of acetylated peptide normalized to total (C+N+P)” value [5] was “+ (A “+” indicates a 1.3 fold change or greater in the quantity of peptide when normalized to the total (C+N+P=total))”. For the same molecule, the “N: fold change in quantity of acetylated peptide normalized to total (C+N+P)” value [5] was −0.97 log 2 scale, the “C: change in quantity of acetylated peptide normalized to total (C+N+P)” value [6] was “− (A “−” indicates a 1.29 fold change or less in the quantity of peptide when normalized to the total (C+N+P=total))” and the “C: fold change in quantity of acetylated peptide normalized to total (C+N+P)” value [6] was 0.15 log 2 scale. For the same molecule, the “P: change in quantity of acetylated peptide normalized to total (C+N+P)” value [6] was “− (A “−” indicates a 1.29 fold change or less in the quantity of peptide when normalized to the total (C+N+P=total))”, the “N: change in quantity of acetylated peptide normalized to total (C+N+P)” value [6] was “+ (A “+” indicates a 1.3 fold change or greater in the quantity of peptide when normalized to the total (C+N+P=total))” and the “N: fold change in quantity of acetylated peptide normalized to total (C+N+P)” value [6] was 0.49 log 2 scale. The “C: change in quantity of acetylated peptide normalized to total (C+N+P)” value [7] was “− (A “−” indicates a 1.29 fold change or less in the quantity of peptide when normalized to the total (C+N+P=total))”, the “C: fold change in quantity of acetylated peptide normalized to total (C+N+P)” value [7] was 0.12 log 2 scale and the “P: change in quantity of acetylated peptide normalized to total (C+N+P)” value [7] was “− (A “−” indicates a 1.29 fold change or less in the quantity of peptide when normalized to the total (C+N+P=total))”. The “N: change in quantity of acetylated peptide normalized to total (C+N+P)” value [7] was “+ (A “+” indicates a 1.3 fold change or greater in the quantity of peptide when normalized to the total (C+N+P=total))”, the “N: fold change in quantity of acetylated peptide normalized to total (C+N+P)” value [7] was −0.38 log 2 scale and the “C: change in quantity of acetylated peptide normalized to total (C+N+P)” value [8] was “− (A “−” indicates a 1.29 fold change or less in the quantity of peptide when normalized to the total (C+N+P=total))”. The “C: fold change in quantity of acetylated peptide normalized to total (C+N+P)” value [8] was 0.31 log 2 scale, the “P: change in quantity of acetylated peptide normalized to total (C+N+P)” value [8] was “− (A “−” indicates a 1.29 fold change or less in the quantity of peptide when normalized to the total (C+N+P=total))” and the “N: change in quantity of acetylated peptide normalized to total (C+N+P)” value [8] was “+ (A “+” indicates a 1.3 fold change or greater in the quantity of peptide when normalized to the total (C+N+P=total))”. The “N: fold change in quantity of acetylated peptide normalized to total (C+N+P)” value [8] was 0.40 log 2 scale.
